Here are results for one compound from US20100173983A1, “METHOD FOR INDUCING AUTOPHAGY” (priority 2007, published 2010).

Experiment [1] has as its system CP70 ovarian cancer cells. The experiment can be described thus: DNA fragmentation, PI/Hoechst FACS analysis. The settings on record: 10 μM for 24 hr; 1.4% in the absence of Cpd 1. Format: cell-based, Human. The method, then: FIG. 7. Cpd 1 induces DNA degradation in CP70 cells. A, No treatment control. B, Cpd 1-treated cells. CP70 ovarian cancer cells were incubated with 10 μg/ml Cpd 1 for […] and fixed. Cells were co-stained with propidium iodide and Hoechst A and incidence of PI labelled cells indicative of DNA degradation in quandrant 2 was assessed by FACS analysis.
The inventors then determined whether treatment with Cpd 1 induced DNA fragmentation. Ovarian cancer cells were treated with Cpd 1 (10 μM) for 24 hr and gently trypsinised. Trypsinized cells were combined with non-adherent cells, rinsed once in medium containing serum and then resuspended at a concentration of 10^7 cells/ml in PBS. Cells were then fixed by adding 0.5 ml of cell suspension to 4.5 ml 70% ice-cold ethanol. After 2 h on ice, cells were pelleted and the ethanol was thoroughly decanted. The cell pellet was rinsed in 5 ml PBS, centrifuged, resuspended in 1 ml of PBS containing 0.1% Triton X-100, 0.2 mg/ml DNase-free RNase A, and 20 μg/ml propidium iodide (PI) and 2 μg/ml hoechst-A and incubated at 37° C. for 15 min before FACS analysis. Cells were analyzed using Becton Dickinson Cell Quest FACStation software (version 3.0.1) operating a Becton Dickinson FACSCalibur FACS machine. Gating was used to remove debris and doublets before collection. Results were quantitated using ModFit LT (1999; Topsham, Me.: Verity Software House, Inc.). […]
Background: In flow cytometry, cells or beads pass a laser one at a time.

For the next experiment, the system named is S6K. The experiment can be described thus: Western blot of xenograft tumour extracts, S6K phosphorylation. Format: in vivo, SCID mice. To be noted: tumour-bearing mice dosed with Cpd 1, compared to control. How it is done: FIG. 11. Cpd 1 markers of autophagy observed in in vitro studies are also present in vivo. […] T-S6K served as loading control.
A downstream target of mTOR is the ribosomal protein S6K kinase thought to have a role in tumour invasiveness, motility and angiogenesis as well as other degenerative diseases such as diabetes (Dann et al., 2007). […] Tumour tissue was homogenised in lysis buffer containing 1% Nonidet P-40, 0.1% SDS, 0.5% deoxycholate, 150 mM NaCl, 50 mM Tris-HCl pH7.5, 1 mM EDTA, 1 mM PMSF and protease inhibitors (Roche) on ice for 30 minutes. After centrifugation at 15,000×g for 15 minutes, soluble extract was were aliquoted into a separate tube, protein content assayed by the BCA method (Pierce), and 50 μg protein loaded on SDS-PAGE gels. Proteins were electrophoretically transferred to PVDF membranes (Millipore Immobilon P) and the membranes were probed with antibodies specific to p-S6K and t-S6K (LifeSpan Bioscience). The blots were developed on X-ray films using HRP-conjugated secondary antibodies and a chemiluminescent substrate (ECL, Amersham, N.Y.).
Background: A western blot detects proteins with antibodies after separation by electrophoresis.

For experiment [2], the system named is chemoresistant epithelial ovarian cancer (EOC) xenografts. The experiment can be described thus: EOC xenograft in SCID mice, tumour growth. Format: in vivo. To be noted: increasing doses, intraperitoneal injection; data not shown. How it is done: In vivo studies using tumour-bearing mice were conducted to further confirm that Cpd 1 induces programmed cell death via an autophagic process. SCID mice bearing chemoresistant epithelial ovarian cancer (EOC) xenografts derived from a primary cell culture of a patient's ascites were administered with increasing doses of Cpd 1 by intraperotineal injection resulting in reductions in both tumor volume and tumor weight (data not shown). Representative tumours excised from these mice and tumour-bearing mice administered vehicle control were then fixed, sectioned and subjected to immunohistopathology analysis using an α-enodonuclease G directed monoclonal antibody. Tumor samples were blocked with either 10% horse or goat serum in PBS for 1 hour at room temperature. Following three washes with PBS, samples were incubated overnight at 4° C. with either the anti-EndoG (LifeSpan Bioscience) antibody or mouse IgG1 isotype as negative controls. After three washes with PBS, specific staining was detected by incubating with a peroxidase-conjugated horse anti-mouse antibody (1:1000 dilution) for 1 hour followed by a five-minute incubation with DAB substrate (Vector Laboratories). Tissue sections were then counterstained with haematoxylin (Sigma Chemical Co.) before dehydration with ethanol and Histosolve (Shandon Inc., Pittsburgh, Pa.). […]

The test system of another experiment is Akt. Briefly: Western blot of R-182 lysates, Akt. The experiment is classed as cell-based, Human. The settings on record: R-182 cells, 5 μg/ml. An excerpt: FIG. 10. The expression of upstream regulators of autophagy are also modulated in response to Cpd 1. […] B-actin was included as a loading control. B, Proposed mechanism of Cpd 1 induced autophagic cell death.
After treatment with Cpd 1, protein was extracted from cells and measured as previously described (Kamsteeg et al., 2003). For separation of the cytoplasmic and mitochondrial fractions, cell pellets were processed using the ApoAlert Cell Fractionation kit (Promega) according to the manufacturer's instructions. 20 μg protein was denatured in sample buffer (2.5% sodium dodecyl sulfate [SDS], 10% glycerol, 5% β-mercapto-ethanol, 0.15 M Tris, pH 6.8, and 0.01% bromophenol blue) and subjected to 12% SDS polyacrylamide gel electrophoresis (SDS-PAGE) as previously described (Kamsteeg et al., 2003). The following antibodies and concentrations were used: mouse anti-Bax (BD Biosciences, 1:500), rabbit anti-actin (Sigma, 1:10,000), rabbit anti-cytochrome c (BD Biosciences, 1:1,000), mouse anti-Cox-4 (BD Biosciences, 1:500), rabbit anti-beclin 1 (Santa Cruz Biotechnology, 1:600), mouse anti LC3 (Nanotools, 1:500). […] Proteins were observed using enhanced chemiluminescence (Pierce, Rockford, Ill.).

Another experiment concerns ovarian cancer cells. The experiment can be described thus: Cell viability in presence of pan caspase inhibitor ZVAD-FMK. To be noted: ZVAD-FMK 0.5 μg/ml. Format: cell-based, Human. How it is done: FIG. 5. Comparative cell viability plots of dehydroequol (A) and Cpd 1 (B) treated cells in the presence and absence of the pan caspase inhibitor ZVAD-FMK (0.5 μg/ml).
Cell viability was evaluated using the CellTiter 96 Aqueous One Solution Cell Proliferation Assay (Promega, Madison, Wis.) according to the manufacturer's instructions. The values from the treated cells were compared with the values generated from the untreated cells and reported as percent viability. Each experiment was performed in triplicate.

For another experiment, the system named is caspase 8. The experiment can be described thus: Caspase-Glo 8 assay in R182 cells. Format: cell-based, Human. To be noted: R182 ovarian cancer explants; dose response and duration of exposure (5 μg/ml, 0-25 hr). How it is done:
FIG. 4. Comparative induction of caspase 8 in R182 ovarian cancer explants by Cpd 1 and dehydroequol using either dose response (A) or duration of exposure (B). Caspase 8 activity was assessed using the Caspase-Glo 8 assay.
For caspase activity assays, 10 μg of protein in 50 μL total volume was mixed with 50 μL of equilibrated Caspase-Glo 3/7, 8, or 9 reagents (Promega). After incubating at room temperature for 1 hour, luminescence was measured using TD 20/20 Luminometer (Turner Designs, Sunnyvale, Calif.). Blank values were subtracted and fold-increase in activity was calculated based on activity measured from untreated cells. Each sample was measured in triplicate.

Structures are written as SMILES.

On to `COc1ccc([C@H]2c3ccc(O)c(C)c3OC[C@H]2c2ccc(O)cc2)cc1` (stereo in doubt) [Cpd 1, 3-(4-hydroxyphenyl)-4-(4-methoxyphenyl)-8-methylchroman-7-ol], for which the DNA fragmentation in experiment [1] came to 95%. In addition, the “phosphorylation status of S6K (S6K-P) in tumour extracts” value in the experiment with S6K is on record as “reduced compared to control”. In experiment [2], the tumor volume result is recorded as “reductions” and the tumor weight entry is recorded as “reductions”. Also, in the experiment with Akt, the “Akt phosphorylation (p-Akt)” value was “reduced up to 120 minutes post exposure” and the “total Akt (t-Akt) expression” value was “remained unchanged”. In addition, the “cell death in the presence of pan caspase inhibitor ZVAD-FMK” value with ovarian cancer cells is “cell death proceeded”. For the same compound, in the experiment with caspase 8, the “caspase 8 activity” value was “did not induce caspase 8 activity”.
